Test results reported in ChEMBL document CHEMBL5729039, “Macrocyclic fluorine substituted indole derivatives” (2022).

Columns and labels:
[1] = target: Bcl-2-like protein 1 (Homo sapiens, UniProt Q07817); assay: (§1) Biological Assay: BCL-XL Assay: In the assay 11 different concentrations of each compound (0.1 nM, 0.33 nM, 1.1 nM, 3.8 nM, 13 nM, 44 nM, 0.15 μM, 0.51 μM, 1.7 μM, 5.9 μM and 20 μM) were typically measured as duplicates in the same microtiter plate. For that, 100-fold concentrated DMSO solutions were prepared by serial dilutions (1:3.4) of a 2 mM stock solution in a clear, 384-well microtiter plate (Greiner Bio-One, Frickenhausen, Germany). From there, 50 nl were transferred in a dark test plate (Greiner Bio-One, Frickenhausen, Germany). The assay was initiated by addition of 2 μl of a 2,5-fold concentrated His-BCL-XL solution (usually for a 1 nM end concentration in 5 μl reaction volume) in aqueous assay buffer [50 mM Tris/HCl pH 7, 100 mM sodium chloride (NaCl), 50 μM potassium fluoride (KF), 0.005% Tween-20, 2 mM DTT, 0.1% bovine gamma globulin (BGG)] to the compounds in the assay plate. This was followed by a 10-minute incubation step at 22° C. for pre-equilibration of the putative complex between His-BCL-XL and the compounds. After that, 3 μl of a 1.67-fold concentrated solution (in assay buffer) consisting of Bad BH3-derived peptide (1 nM end concentration) and TR-FRET detection reagents [1.67 nM anti-His-Eu cryptate and 1.67 nM streptavidin-XL665 (both from Cisbio Bioassays, Codolet, France)], were added.
[2] = target: Apoptosis regulator Bcl-2 (Homo sapiens, UniProt P10415); assay: as §1, with “Biological Assay 2: BCL-2” for “Biological Assay: BCL-XL”, “concentrated His-BCL-2” for “concentrated His-BCL-XL”, “50 mM” for “50 μM”, “between His-BCL-2” for “between His-BCL-XL”
Apoptosis regulator Bcl-2, sequence (P10415 whole entry): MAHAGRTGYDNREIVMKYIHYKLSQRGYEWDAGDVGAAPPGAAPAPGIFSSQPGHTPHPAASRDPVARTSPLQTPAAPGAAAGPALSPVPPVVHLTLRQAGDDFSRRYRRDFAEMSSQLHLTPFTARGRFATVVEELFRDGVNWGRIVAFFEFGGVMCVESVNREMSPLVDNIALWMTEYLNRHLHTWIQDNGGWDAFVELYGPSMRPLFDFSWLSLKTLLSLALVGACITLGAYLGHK

Bcl-2-like protein 1, sequence (Q07817 whole entry): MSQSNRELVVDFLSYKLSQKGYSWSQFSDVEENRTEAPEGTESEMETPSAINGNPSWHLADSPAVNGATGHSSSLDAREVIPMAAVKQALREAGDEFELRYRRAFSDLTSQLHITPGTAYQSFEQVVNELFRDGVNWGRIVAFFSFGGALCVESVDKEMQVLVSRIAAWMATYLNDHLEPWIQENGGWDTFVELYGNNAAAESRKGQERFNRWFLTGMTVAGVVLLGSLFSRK

## CCc1c2c(nn1C)COCCCCn1c(C(=O)O)c(CCCOc3cccc4ccccc34)c3ccc(F)c-2c31
[1]
  IC50: > 20 µM
[2]
  IC50: > 20 µM

## Cc1c2c(nn1C)C[N+](C)(C)CCCCn1c(C(=O)O)c(CCCOc3cccc4ccccc34)c3ccc(F)c-2c31
[1]
  IC50: > 20 µM
[2]
  IC50: > 20 µM

## Cc1c2c(nn1C)COCCCCn1c(C(=O)O)c(CCCOc3cccc4cc(F)ccc34)c3ccc(F)c-2c31
[1]
  IC50: > 20 µM
[2]
  IC50: > 20 µM

## CCc1nn(C)c2c1-c1c(F)ccc3c(CCCOc4cccc5cc(F)ccc45)c(C(=O)O)n(c13)CCCCOC2
[1]
  IC50: > 20 µM
[2]
  IC50: > 20 µM

## CCc1c2c(nn1C)COCCCCn1c(C(=O)O)c(CCCOc3ccc(F)c4ccccc34)c3ccc(F)c-2c31
[1]
  IC50: > 20 µM
[2]
  IC50: > 20 µM

## Cc1c2c(nn1C)COCCCCn1c(C(=O)O)c(CCCOc3cccc4ccccc34)c3ccc(F)c-2c31
[1]
  IC50: > 20 µM
[2]
  IC50: > 20 µM
